From patent US20240174723A1, “STAPLED ANTIMICROBIAL PEPTIDES (STAMPS) AND USES THEREOF” (Lytica Therapeutics, Inc., priority 2021, published 2024)
Converted amounts (≈) assume the structure as drawn. Like-named read-outs stand apart in the source and are kept apart here. Positions of bridges follow the written chain, without caps; N, C: chain ends. Non-standard residues stand in square brackets, D forms with d. Residues, ends and D or L forms follow the SMILES beside them. Phe(4-CF3) = N[C@@H](Cc1ccc(C(F)(F)F)cc1)C(=O)O; Phe(4-tBu) = CC(C)(C)c1ccc(C[C@H](N)C(=O)O)cc1; S5 = C=CCCC[C@](C)(N)C(=O)O; Dab = NCC[C@H](N)C(=O)O

Legend:
P. aeruginosa = type: cell-based, Pseudomonas aeruginosa
Summary of the method: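 MIC taken as lowest peptide concentration with no visible growth after 20-24 h at 37 °C. Peptide serial dilutions from water stocks met P. aeruginosa inoculum (5×10^5 CFU/ml final) in MHB or MHB II, per a CLSI-adapted microbroth protocol.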

S. aureus = type: cell-based, Staphylococcus aureus
Summary of the method: (§1)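 Colonies are grown overnight at 37 °C, diluted and regrown 3-4 h. Bacteria in MHB or MHB II are then added to serial peptide dilutions to reach 5×10^5 CFU/ml. Plates are incubated 20-24 h at 37 °C and scored for the lowest concentration without visible growth.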

E. coli = type: cell-based, Escherichia coli
Summary of the method: as §1

K. pneumoniae = type: cell-based, Klebsiella pneumoniae
Summary of the method: as §1

A. baumannii = type: cell-based, Acinetobacter baumannii
Summary of the method: as §1

in vitro [1] = type: cell-based; settings: human
Summary of the method: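 Cytotoxicity read by CellTiter-Glo luminescence after 48 h at 37 °C exposure to serially diluted StAMPs or vehicle. HepG2 cells were grown in EMEM plus 10% FBS and given 4 h to attach before dosing; peptides came from a 5 mg/mL aqueous stock.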

in vitro [2] = type: cell-based; settings: human; remark: listed apart in the source
Summary of the method: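 LDH release (absorbance at 490 nm) measured in the media of cells treated with serially diluted StAMPs or vehicle at 37 °C: 90 min for renal RPTEC, 48 h for liver HepG2. Cells were seeded overnight beforehand and media refreshed before dosing.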

[3] = Inhibitory Concentration at 50% Cytotoxicity (IC50) Human Liver Cells (HepG2)
[4] = 48 hours of incubation, read-out: Inhibitory Concentration at 50% Cytotoxicity (IC50) Human Liver Cells (HepG2)
[5] = 90 minutes of incubation, read-out: Inhibitory Concentration at 50% Cytotoxicity (IC50) Human Renal Proximal Tubule Epithelial Cells (RPTEC)

Compound	Minimum Inhibitory Concentration (MIC) P. aeruginosa (P. aeruginosa)	Minimum Inhibitory Concentration (MIC) S. aureus (S. aureus)	Minimum Inhibitory Concentration (MIC) E. coli (E. coli)	Minimum Inhibitory Concentration (MIC) K. pneumoniae (K. pneumoniae)	Minimum Inhibitory Concentration (MIC) A. baumannii (A. baumannii)	IC50 at 90 min (in vitro [2])	IC50 at 48 hours (in vitro [1]; [3])	IC50 at 48 hours (in vitro [1]; [4])	IC50 at 90 min (in vitro [2]; [5])
CC(C)[C@@H]1NC(=O)[C@@](C)(NC(=O)[C@H](C)NC(=O)[C@H](CCCCN)NC(=O)CNC(=O)[C@H](Cc2ccccc2)NC(=O)[C@H](CCCCN)NC(=O)[C@H](CCCCN)NC(=O)[C@H](CCCCN)NC(=O)[C@H](CCCCN)NC(=O)[C@H](CCCCN)NC(=O)[C@]2(C)CCCC=CCCC[C@](C)(NC(=O)CN)C(=O)NCC(=O)N[C@@H](CCCCN)C(=O)N[C@@H](Cc3ccccc3)C(=O)N2)CCCC=CCCC[C@@](C)(C(=O)N[C@@H](C)C(=O)N[C@@H](CCCCN)C(=O)N[C@@H](CCCCN)C(=O)NCC(=O)NCC(=O)N[C@@H](CCC(=O)O)C(N)=O)NC(=O)[C@H](CCC(=O)O)NC(=O)[C@H](Cc2ccccc2)NC1=O [compound 33] (H-G[S5]GKF[S5]KKKKKFGKA[S5]VFE[S5]AKKGGE-NH2; staple 2-6, 16-20)	4 µg/mL	>64 µg/mL	2 µg/mL	4 µg/mL	2 µg/mL	–	–	> 200 µg/mL	~200 µg/mL (≈ 69 µM)
CC(C)[C@@H]1NC(=O)[C@@](C)(NC(=O)[C@H](C)NC(=O)[C@H](CCCCN)NC(=O)CNC(=O)[C@H](Cc2ccccc2)NC(=O)[C@H](CCCCN)NC(=O)[C@H](CCCCN)NC(=O)[C@H](CCCCN)NC(=O)[C@H](CCCCN)NC(=O)[C@H](CCCCN)NC(=O)[C@]2(C)CCCC=CCCC[C@](C)(NC(=O)CN)C(=O)NCC(=O)N[C@@H](CCCCN)C(=O)N[C@@H](Cc3ccccc3)C(=O)N2)CCCC=CCCC[C@@](C)(C(=O)N[C@@H](C)C(=O)N[C@@H](CCCCN)C(=O)N[C@@H](CCCCN)C(=O)NCC(=O)NCC(=O)N[C@@H](CCC(=O)O)C(N)=O)NC(=O)[C@H](CCC(=O)O)NC(=O)[C@@H](Cc2ccccc2)NC1=O [compound 34] (H-G[S5]GKF[S5]KKKKKFGKA[S5]V[dF]E[S5]AKKGGE-NH2; staple 2-6, 16-20)	4 µg/mL	>64 µg/mL	2 µg/mL	2 µg/mL	2 µg/mL	–	–	109 µg/mL (≈ 37.6 µM)	96 µg/mL (≈ 33.1 µM)
CC(C)[C@@H]1NC(=O)[C@@](C)(NC(=O)[C@H](C)NC(=O)[C@H](CCCCN)NC(=O)CNC(=O)[C@H](Cc2ccccc2)NC(=O)[C@H](CCCCN)NC(=O)[C@H](CCCCN)NC(=O)[C@H](CCCCN)NC(=O)[C@H](CCCCN)NC(=O)[C@H](CCCCN)NC(=O)[C@]2(C)CCCC=CCCC[C@](C)(NC(=O)CN)C(=O)NCC(=O)N[C@@H](CCCCN)C(=O)N[C@@H](Cc3ccccc3)C(=O)N2)CCCC=CCCC[C@@](C)(C(=O)N[C@@H](C)C(=O)N[C@@H](CCCCN)C(=O)N[C@@H](CCCCN)C(=O)NCC(=O)NCC(=O)N[C@@H](CCC(=O)O)C(N)=O)NC(=O)[C@H](CCC(=O)O)NC(=O)[C@H](Cc2ccc(C(F)(F)F)cc2)NC1=O [compound 35] (H-G[S5]GKF[S5]KKKKKFGKA[S5]V[Phe(4-CF3)]E[S5]AKKGGE-NH2; staple 2-6, 16-20)	2 µg/mL	64 µg/mL	2 µg/mL	2 µg/mL	2 µg/mL	~200 µg/mL (≈ 67.4 µM)	> 200 µg/mL	–	–
CC(C)[C@@H]1NC(=O)[C@@](C)(NC(=O)[C@H](C)NC(=O)[C@H](CCCCN)NC(=O)CNC(=O)[C@H](Cc2ccccc2)NC(=O)[C@H](CCCCN)NC(=O)[C@H](CCCCN)NC(=O)[C@H](CCCCN)NC(=O)[C@H](CCCCN)NC(=O)[C@H](CCCCN)NC(=O)[C@]2(C)CCCC=CCCC[C@](C)(NC(=O)CN)C(=O)NCC(=O)N[C@@H](CCCCN)C(=O)N[C@@H](Cc3ccccc3)C(=O)N2)CCCC=CCCC[C@@](C)(C(=O)N[C@@H](C)C(=O)N[C@@H](CCCCN)C(=O)N[C@@H](CCCCN)C(=O)NCC(=O)NCC(=O)N[C@@H](CCC(=O)O)C(N)=O)NC(=O)[C@H](CCC(=O)O)NC(=O)[C@H](Cc2ccc(C(C)(C)C)cc2)NC1=O [compound 36] (H-G[S5]GKF[S5]KKKKKFGKA[S5]V[Phe(4-tBu)]E[S5]AKKGGE-NH2; staple 2-6, 16-20)	4 µg/mL	64 µg/mL	2 µg/mL	2 µg/mL	2 µg/mL	96 µg/mL (≈ 32.5 µM)	> 200 µg/mL	–	–

Now from value to molecule, other results behind:

Minimum Inhibitory Concentration (MIC) P. aeruginosa (P. aeruginosa)	Minimum Inhibitory Concentration (MIC) S. aureus (S. aureus)	Minimum Inhibitory Concentration (MIC) E. coli (E. coli)	Minimum Inhibitory Concentration (MIC) K. pneumoniae (K. pneumoniae)	Minimum Inhibitory Concentration (MIC) A. baumannii (A. baumannii)	IC50 at 90 min (in vitro [2])	Compound	IC50 at 48 hours (in vitro [1]; [3])	IC50 at 48 hours (in vitro [1]; [4])	IC50 at 90 min (in vitro [2]; [5])
4 µg/mL	>64 µg/mL	4 µg/mL	4 µg/mL	4 µg/mL	100 µg/mL (≈ 42.3 µM)	CC(C)[C@@H]1NC(=O)[C@@](C)(NC(=O)[C@H](C)NC(=O)[C@H](CCCCN)NC(=O)CNC(=O)[C@H](Cc2ccccc2)NC(=O)[C@H](CCCCN)NC(=O)[C@H](CCCCN)NC(=O)[C@H](CCCCN)NC(=O)[C@H](CCCCN)NC(=O)[C@H](CCCCN)NC(=O)[C@]2(C)CCCC=CCCC[C@](C)(NC(=O)CN)C(=O)NCC(=O)N[C@@H](CCCCN)C(=O)N[C@@H](Cc3ccccc3)C(=O)N2)CCCC=CCCC[C@@](C)(C(=O)N[C@@H](CCCCN)C(N)=O)NC(=O)[C@H](CCC(=O)O)NC(=O)CNC1=O [compound 27] (H-G[S5]GKF[S5]KKKKKFGKA[S5]VGE[S5]K-NH2; staple 2-6, 16-20)	117 µg/mL (≈ 49.5 µM)	–	–
8 µg/mL	16 µg/mL	4 µg/mL	8 µg/mL	4 µg/mL	9 µg/mL (≈ 3.3 µM)	CC(C)[C@@H]1NC(=O)[C@H](C(C)C)NC(=O)[C@@](C)(NC(=O)[C@H](C)NC(=O)[C@H](CCCCN)NC(=O)CNC(=O)[C@H](Cc2ccc(C(C)(C)C)cc2)NC(=O)[C@H](CCCCN)NC(=O)[C@H](CCCCN)NC(=O)[C@H](CCCCN)NC(=O)[C@H](CCCCN)NC(=O)[C@H](Cc2c[nH]cn2)NC(=O)[C@]2(C)CCCC=CCCC[C@](C)(NC(=O)CN)C(=O)NCC(=O)N[C@@H](CCCCN)C(=O)N[C@@H](Cc3ccc(C(C)(C)C)cc3)C(=O)N2)CCCC=CCCC[C@@](C)(C(=O)N[C@@H](C)C(=O)N[C@@H](CCCCN)C(=O)N[C@@H](CCCCN)C(N)=O)NC(=O)[C@H](CCC(=O)O)NC1=O [compound 31] (H-G[S5]GK[Phe(4-tBu)][S5]HKKKK[Phe(4-tBu)]GKA[S5]VVE[S5]AKK-NH2; staple 2-6, 16-20)	101 µg/mL (≈ 37 µM)	–	–
4 µg/mL	>64 µg/mL	4 µg/mL	8 µg/mL	4 µg/mL	~200 µg/mL (≈ 70.2 µM)	CC(C)[C@@H]1NC(=O)[C@H](C(C)C)NC(=O)[C@@](C)(NC(=O)[C@H](C)NC(=O)[C@H](CCCCN)NC(=O)CNC(=O)[C@H](Cc2ccccc2)NC(=O)[C@H](CCCCN)NC(=O)[C@H](CCCCN)NC(=O)[C@H](CCCCN)NC(=O)[C@H](CCCCN)NC(=O)[C@H](CCCCN)NC(=O)[C@]2(C)CCCC=CCCC[C@](C)(NC(=O)CN)C(=O)NCC(=O)N[C@@H](CCCCN)C(=O)N[C@@H](Cc3ccccc3)C(=O)N2)CCCC=CCCC[C@@](C)(C(=O)N[C@@H](C)C(=O)N[C@@H](CCCCN)C(=O)N[C@@H](CCCCN)C(=O)NCC(=O)NCC(=O)N[C@@H](CCC(=O)O)C(N)=O)NC(=O)[C@H](CCC(=O)O)NC1=O [compound 32] (H-G[S5]GKF[S5]KKKKKFGKA[S5]VVE[S5]AKKGGE-NH2; staple 2-6, 16-20)	> 200 µg/mL	–	–
4 µg/mL	>64 µg/mL	2 µg/mL	8 µg/mL	2 µg/mL	115 µg/mL (≈ 45.3 µM)	CC(C)[C@@H]1NC(=O)[C@@](C)(NC(=O)[C@H](C)NC(=O)[C@H](CCN)NC(=O)CNC(=O)[C@H](Cc2ccccc2)NC(=O)[C@H](CCCCN)NC(=O)[C@H](CCCCN)NC(=O)[C@H](CCCCN)NC(=O)[C@H](CCCCN)NC(=O)[C@H](CCCCN)NC(=O)[C@]2(C)CCCC=CCCC[C@](C)(NC(=O)CN)C(=O)NCC(=O)N[C@@H](CCCCN)C(=O)N[C@@H](Cc3ccccc3)C(=O)N2)CCCC=CCCC[C@@](C)(C(=O)N[C@@H](C)C(=O)N[C@@H](CCCCN)C(=O)N[C@@H](CCCCN)C(N)=O)NC(=O)[C@H](CCC(=O)O)NC(=O)CNC1=O [compound 39] (H-G[S5]GKF[S5]KKKKKFG[Dab]A[S5]VGE[S5]AKK-NH2; staple 2-6, 16-20)	140 µg/mL (≈ 55.2 µM)	–	–
